Source: US20230107770A1, “METHOD OF ENHANCING IMMUNOTHERAPY USING ER STRESS PATHWAY INHIBITORS” (H. LEE MOFFITT CANCER CENTER AND RESEARCH INSTITUTE, INC., priority 2020, published 2023)

Columns and labels:
[1] = system: murine BM-MDSC; assay: In vitro suppression assay with murine BM-MDSC; assay type: cell-based, mouse
Description: Mouse BM-MDSC were generated after culturing BM precursors with GM-CSF and G-CSF (20 ng/ml each) for 4 days. In vitro generated MDSC were treated with either LLC tumor explant supernatants (TES, since day 0) or Thaps (200 nM, for the last 24 hours of culture). Human BM-MDSC were developed after culturing BM or peripheral blood precursors from healthy donors with GM-CSF and IL-6 (10 ng/ml each) for a period of 6 days (Thevenot et al., 2014). To induce UPR activation, MDSC were treated with either supernatants from renal cell carcinoma cells 786-0 (hTES) for 6 days (Rodriguez et al., 2009) or Thaps during the last 24 hours before collection (200 nM). In some experiments, MDSC were pre-incubated for 3 hours with Resveratrol (100 μM, Sigma-Aldrich), D,L-Sulphoraphane (20 μM), AMG-44 (5 μM), or TUDCA (500 nM) before treating with Thaps.
Murine BM-MDSC (ratio 1:1/8) or tumor-MDSC (ratio 1:1/4) were co-cultured with negatively selected CD3^+ T cells in a 96 well plate bound α-CD3 and α-CD28 (1 μg/ml each, eBioscience) for 3 days. T cell proliferation was assessed with Carboxyfluorescein succinimidyl ester (CFSE) or Cell-trace violet (Invitrogen) dye dilution detected by flow cytometry. For human studies, MDSC were co-cultured with enriched CD3^+ T cells activated with soluble α-CD3 (1 μg/ml, clone OKT3) and α-CD28 (0.5 μg/ml, clone L293) for 3 days in a 96 well plate bound with goat anti-mouse IgG (10 μg/ml). Results are expressed as percentage of proliferating T cells, determined by the dilution of fluorescence compared with non-stimulated T cells.

[2] = Blood glucose and pancreatic islets in B16-bearing mice; assay type: in vivo
From the text: Hematoxylin and Eosin (H&E) stained slides were scanned in an Aperio AT2 whole slide scanner (Leica Biosystems Inc.) equipped with a 20×0.7NA objective lens Images were created at 0.5 micron per pixel resolution and imported into Definiens Tissue Studio software v4.7 (Definiens AG) for analysis. Islets were found using a semi-automated segmentation process. First an automatic segmentation was applied to the image to create contour lines around objects within the image. Objects that contained islets were classified as such and remaining objects were classified as non-islet tissue. Next, adjacent objects of the same classification were merged together to clean up the segmentation. Segmented images were analyzed to provide the total area of islets Immunofluorescence for mouse insulin in pancreas tissue sections was performed as we described (Sultan et al., 2017). Labeled samples were scanned with a Zeiss Imager Z2 Upright FL microscope with a 10× objective lens using the tile scan function. Images were created at a
0.65 micron per pixel resolution and imported into the Definiens Tissue Studio software v4.7 (Definiens AG) for islet detection and analysis. Islets were detected using a semi-automated segmentation process. First, an automatic segmentation was applied to the image to detect the tissue. Then, the software was trained to detect islet vs. non-islet tissue within the image. In order to remove false detected islets caused by background staining, detected islets larger than 150,000 square microns and less than 600 square microns were reclassified to non-islet tissue. Segmented images were then analyzed to provide the fluorescent intensity of islets and total tissue area.

Cc1ccc2cc(-c3c(C)ccc(C(=O)c4c(-c5ccccc5)n(C)n(-c5ccccc5)c4=O)c3N)ccc2n1 [AMG-44]
ability of Thaps-treated BM-MDSC to impair T cell proliferation ([1]; BM-MDSC (1:1/8) exposed 3 hours to 5 μM AMG-44): overcame the ability of Thaps-treated BM-MDSC to impair T cell proliferation | MDSC-baseline activity ([1]; control BM-MDSC exposed 3 hours to 5 μM AMG-44): without affecting MDSC-baseline activity | blood glucose levels ([2]; AMG-44 12 and 24 mg/kg): without alterations | insulin expression in the pancreatic islets ([2]; AMG-44 12 and 24 mg/kg): without alterations | size of the pancreatic islets ([2]; AMG-44 12 and 24 mg/kg): without alterations | glucose levels in the serum ([2]; B16-bearing mice treated for a week, GSK2606414 25 mg/kg or AMG-44 12 mg/kg, day 17): failed to show alterations in glucose levels
